The values that follow come from paper PMC8659148, “Drug Repurposing for Influenza Virus Polymerase Acidic (PA) Endonuclease Inhibitor” (Molecules, 2021).

The target in the assay is T1, PAN endonuclease domain from influenza A type virus (H1N1) (PAN, residues 1-197) (Influenza A virus, UniProt P03433).
T1 construct: influenza A type virus (H1N1) (PAN, residues 1-197) was cloned; His tag (inferred from pET-28a vector and IMAC purification); made in house; host or cells: E. coli BL21 (DE3)
The assay is classed as biochemical. Particulars: ssDNA, 1 h, 37 °C; conivaptan 0–[…], dutasteride 0–1000 μM, rifaximin 0–1000 μM, lurasidone 0–3000 μM (Figure S1).

For `C[C@]12C=CC(=O)N[C@@H]1CC[C@@H]1[C@@H]2CC[C@]2(C)[C@@H](C(=O)Nc3cc(C(F)(F)F)ccc3C(F)(F)F)CC[C@@H]12` [dutasteride], the “inhibition of the endonuclease activity of PAN (in words)” value was “no inhibition”. As to `CS(=O)(=O)c1cccc(C[C@H](NC(=O)c2c(Cl)cc3c(c2Cl)CCN(C(=O)c2ccc4ccoc4c2)C3)C(=O)O)c1` [lifitegrast], the “inhibition of the endonuclease activity of PAN (in words)” value is reported as “inhibitory effect”. The value for `O=C1[C@@H]2[C@H]3CC[C@H](C3)[C@@H]2C(=O)N1C[C@@H]1CCCC[C@H]1CN1CCN(c2nsc3ccccc23)CC1` [lurasidone] was “no inhibition”; that for `CO[C@H]1/C=C/O[C@@]2(C)Oc3c(C)c(O)c4c(O)c(c5c(nc6cc(C)ccn65)c4c3C2=O)NC(=O)/C(C)=C\C=C\[C@H](C)[C@H](O)[C@@H](C)[C@@H](O)[C@@H](C)[C@H](OC(C)=O)[C@@H]1C` [rifaximin] was “no inhibition”.
